Source: the supplement of paper PMC10307832

Experiments:
Experiment in all cases: relative viability (nuclei count vs DMSO), 5 days (fraction); higher = more cells survive
201T = tested on: 201T
How it was run: (§1)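 Lung cancer cell lines in 1536-well plates were dosed by pin tool the day after seeding, either with one drug alone or with a fixed anchor-drug dose plus five library-drug doses (not always all listed) in √10 steps. After 5 days, cells were fixed and their nuclei stained in one step (final 0.05% Triton X-100, 1% formaldehyde, 1 ug/ml Hoechst), then counted on 4× images. Relative viability is the nuclei count in treated wells divided by that in vehicle wells. Values are medians of duplicate plates.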

ABC-1 = tested on: ABC-1
How it was run: as §1

EMC-BAC-2 = tested on: EMC-BAC-2
How it was run: as §1

EPLC-272H = tested on: EPLC-272H
How it was run: as §1

HCC-78 = tested on: HCC-78
How it was run: as §1

LCLC-103H = tested on: LCLC-103H
How it was run: as §1

LOU-NH91 = tested on: LOU-NH91
How it was run: as §1

NCI-H1395 = tested on: NCI-H1395
How it was run: as §1

NCI-H1437 = tested on: NCI-H1437
How it was run: as §1

NCI-H1651 = tested on: NCI-H1651
How it was run: as §1

NCI-H1734 = tested on: NCI-H1734
How it was run: as §1

NCI-H1793 = tested on: NCI-H1793
How it was run: as §1

NCI-H1915 = tested on: NCI-H1915
How it was run: as §1

NCI-H1975 = tested on: NCI-H1975
How it was run: as §1

NCI-H2023 = tested on: NCI-H2023
How it was run: as §1

NCI-H23 = tested on: NCI-H23
How it was run: as §1

NCI-H2405 = tested on: NCI-H2405
How it was run: as §1

NCI-H647 = tested on: NCI-H647
How it was run: as §1

NCI-H661 = tested on: NCI-H661
How it was run: as §1

RERF-LC-KJ = tested on: RERF-LC-KJ
How it was run: as §1

SK-LU-1 = tested on: SK-LU-1
How it was run: as §1

UMC-11 = tested on: UMC-11
How it was run: as §1

Compound: O=c1[nH]c2ccccc2n1C1CCN(CCCC(c2ccc(F)cc2)c2ccc(F)cc2)CC1 [Pimozide] + Cc1cc(Nc2cc(N3CCN(C)CC3)nc(Sc3ccc(NC(=O)C4CC4)cc3)n2)n[nH]1 [Tozasertib] (partner 0.1 µM)
- relative viability (201T; first compound 0.08 µM): 0.88
- relative viability (201T; first compound 0.253 µM): 0.94
- relative viability (201T; first compound 0.8 µM): 0.871
- relative viability (201T; first compound 2.53 µM): 0.747
- relative viability (201T; first compound 8 µM): 0.636
- relative viability (ABC-1; first compound 0.08 µM): 0.213
- relative viability (ABC-1; first compound 0.253 µM): 0.214
- relative viability (ABC-1; first compound 0.8 µM): 0.184
- relative viability (ABC-1; first compound 2.53 µM): 0.178
- relative viability (ABC-1; first compound 8 µM): 0.203
- relative viability (EMC-BAC-2; first compound 0.08 µM): 0.292
- relative viability (EMC-BAC-2; first compound 0.253 µM): 0.284
- relative viability (EMC-BAC-2; first compound 0.8 µM): 0.272
- relative viability (EMC-BAC-2; first compound 2.53 µM): 0.225
- relative viability (EMC-BAC-2; first compound 8 µM): 0.297
- relative viability (EPLC-272H; first compound 0.08 µM): 0.193
- relative viability (EPLC-272H; first compound 0.253 µM): 0.241
- relative viability (EPLC-272H; first compound 0.8 µM): 0.33
- relative viability (EPLC-272H; first compound 2.53 µM): 0.176
- relative viability (EPLC-272H; first compound 8 µM): 0.189
- relative viability (HCC-78; first compound 0.08 µM): 0.336
- relative viability (HCC-78; first compound 0.8 µM): 0.319
- relative viability (HCC-78; first compound 2.53 µM): 0.371
- relative viability (HCC-78; first compound 8 µM): 0.327
- relative viability (LCLC-103H; first compound 0.08 µM): 0.353
- relative viability (LCLC-103H; first compound 0.253 µM): 0.409
- relative viability (LCLC-103H; first compound 0.8 µM): 0.361
- relative viability (LCLC-103H; first compound 2.53 µM): 0.422
- relative viability (LCLC-103H; first compound 8 µM): 0.446
- relative viability (LOU-NH91; first compound 0.08 µM): 0.451
- relative viability (LOU-NH91; first compound 0.253 µM): 0.614
- relative viability (LOU-NH91; first compound 0.8 µM): 0.553
- relative viability (LOU-NH91; first compound 2.53 µM): 0.648
- relative viability (LOU-NH91; first compound 8 µM): 0.652
- relative viability (NCI-H1395; first compound 0.08 µM): 0.846
- relative viability (NCI-H1395; first compound 0.253 µM): 0.8
- relative viability (NCI-H1395; first compound 0.8 µM): 0.617
- relative viability (NCI-H1395; first compound 2.53 µM): 0.716
- relative viability (NCI-H1395; first compound 8 µM): 0.676
- relative viability (NCI-H1437; first compound 0.08 µM): 0.397
- relative viability (NCI-H1437; first compound 0.253 µM): 0.389
- relative viability (NCI-H1437; first compound 0.8 µM): 0.35
- relative viability (NCI-H1437; first compound 2.53 µM): 0.362
- relative viability (NCI-H1437; first compound 8 µM): 0.341
- relative viability (NCI-H1651; first compound 0.08 µM): 0.618
- relative viability (NCI-H1651; first compound 0.253 µM): 0.697
- relative viability (NCI-H1651; first compound 0.8 µM): 0.655
- relative viability (NCI-H1651; first compound 2.53 µM): 0.611
- relative viability (NCI-H1651; first compound 8 µM): 0.567
- relative viability (NCI-H1734; first compound 0.08 µM): 0.277
- relative viability (NCI-H1734; first compound 0.253 µM): 0.289
- relative viability (NCI-H1734; first compound 2.53 µM): 0.255
- relative viability (NCI-H1734; first compound 8 µM): 0.271
- relative viability (NCI-H1793; first compound 0.253 µM): 0.341
- relative viability (NCI-H1793; first compound 0.8 µM): 0.439
- relative viability (NCI-H1793; first compound 2.53 µM): 0.244
- relative viability (NCI-H1793; first compound 8 µM): 0.278
- relative viability (NCI-H1915; first compound 0.08 µM): 0.445
- relative viability (NCI-H1915; first compound 0.253 µM): 0.383
- relative viability (NCI-H1915; first compound 0.8 µM): 0.332
- relative viability (NCI-H1915; first compound 2.53 µM): 0.321
- relative viability (NCI-H1915; first compound 8 µM): 0.368
- relative viability (NCI-H1975; first compound 0.08 µM): 0.766
- relative viability (NCI-H1975; first compound 0.253 µM): 0.67
- relative viability (NCI-H1975; first compound 0.8 µM): 0.717
- relative viability (NCI-H1975; first compound 2.53 µM): 0.618
- relative viability (NCI-H1975; first compound 8 µM): 0.714
- relative viability (NCI-H2023; first compound 0.08 µM): 0.352
- relative viability (NCI-H2023; first compound 0.253 µM): 0.314
- relative viability (NCI-H2023; first compound 0.8 µM): 0.454
- relative viability (NCI-H2023; first compound 2.53 µM): 0.228
- relative viability (NCI-H2023; first compound 8 µM): 0.237
- relative viability (NCI-H23; first compound 0.08 µM): 0.386
- relative viability (NCI-H23; first compound 0.253 µM): 0.396
- relative viability (NCI-H23; first compound 0.8 µM): 0.348
- relative viability (NCI-H23; first compound 2.53 µM): 0.336
- relative viability (NCI-H23; first compound 8 µM): 0.314
- relative viability (NCI-H2405; first compound 0.08 µM): 0.754
- relative viability (NCI-H2405; first compound 0.253 µM): 0.712
- relative viability (NCI-H2405; first compound 0.8 µM): 0.683
- relative viability (NCI-H2405; first compound 2.53 µM): 0.673
- relative viability (NCI-H2405; first compound 8 µM): 0.575
- relative viability (NCI-H647; first compound 0.08 µM): 0.24
- relative viability (NCI-H647; first compound 0.253 µM): 0.327
- relative viability (NCI-H647; first compound 0.8 µM): 0.264
- relative viability (NCI-H647; first compound 2.53 µM): 0.221
- relative viability (NCI-H647; first compound 8 µM): 0.214
- relative viability (NCI-H661; first compound 0.08 µM): 0.354
- relative viability (NCI-H661; first compound 0.253 µM): 0.376
- relative viability (NCI-H661; first compound 0.8 µM): 0.339
- relative viability (NCI-H661; first compound 2.53 µM): 0.35
- relative viability (NCI-H661; first compound 8 µM): 0.316
- relative viability (RERF-LC-KJ; first compound 0.08 µM): 0.468
- relative viability (RERF-LC-KJ; first compound 0.253 µM): 0.447
- relative viability (RERF-LC-KJ; first compound 0.8 µM): 0.452
- relative viability (RERF-LC-KJ; first compound 2.53 µM): 0.202
- relative viability (RERF-LC-KJ; first compound 8 µM): 0.248
- relative viability (SK-LU-1; first compound 0.08 µM): 0.326
- relative viability (SK-LU-1; first compound 0.253 µM): 0.323
- relative viability (SK-LU-1; first compound 0.8 µM): 0.328
- relative viability (SK-LU-1; first compound 2.53 µM): 0.29
- relative viability (SK-LU-1; first compound 8 µM): 0.299
- relative viability (UMC-11; first compound 0.08 µM): 0.188
- relative viability (UMC-11; first compound 0.253 µM): 0.201
- relative viability (UMC-11; first compound 0.8 µM): 0.205
- relative viability (UMC-11; first compound 2.53 µM): 0.205
- relative viability (UMC-11; first compound 8 µM): 0.205
